Data published in US11116764B2, “Combination of pure 5-HT6 receptor antagonists with NMDA receptor antagonist” (SUVEN LIFE SCIENCES LIMITED, priority 2016, dated 2021).
Structures can show the parent of a compound that is named as a salt.

Experiments:
[1] = target: human recombinant 5-HT2A receptor (Homo sapiens (Human), UniProt P28223); test: Determination of Ki value at 5-HT2A receptor ([3H]-Ketanserine radioligand binding); settings: [3H]-Ketanserine 1.75 nM, average of three independent experiments
Experimental: Determination of Ki Value at 5-HT2A Receptor
Compound was tested according to the following procedures.
Receptor source: Recombinant mammalian cells
Radioligand: [^3H]-Ketanserine (47.3 Ci/mmol)
Final ligand concentration—[1.75 nM]
Non-Specific Ligand: 0.1 mM 1-Naphthylpiperazine (1-NP)
Reference compound: 1-Naphthylpiperazine (1-NP)
Positive control: 1-Naphthylpiperazine (1-NP)
Incubation conditions: Reactions were carried out in 67 mM Tris-HCl (pH 7.4) for 4 hours at 37° C. The reaction was terminated by rapid vacuum filtration onto the glass fiber filters. Radioactivity trapped onto the filters was determined and compared to the control values in order to ascertain any interactions of the test compound(s) with the cloned serotonin 5-HT2A binding site. • Reference: Methods in Molecular Biology, 2002, 190, 31-49
Compounds 1, 2 and 3 bind weakly to 5-HT2A receptor when tested by the in-vitro radioligand binding technique on human recombinant 5-HT2A receptor. The Ki values tabulated below are average of three independent experiments.

Male Wistar rats [2] = test: Object recognition task model; format: in vivo, rat; settings: choice trial T2, 24 hours after T1; compared to the vehicle treatment
Experimental: Four animals were housed in each cage. […] Water was provided ad libitum throughout the experiment. […] Rats received vehicle or test compounds or memantine or test compound and memantine, before familiar (T1) and choice (T2) trials. […] During the T1 and T2 trial, explorations of each object (defined as sniffing, licking, chewing or having moving vibrissae whilst directing the nose towards the object at a distance of less than 1 cm) were recorded using stopwatch.

Male Wistar rats [3] = test: Evaluation of theta modulation in dorsal hippocampus of anesthetized male Wistar rats; format: in vivo, rat; settings: memantine 1 mg/kg i.v. alone or 30 min after compound 1 1 mg/kg i.v.
Source text: […]. Academic Press, New York Results:

Male Wistar rats [4] = test: Evaluation of acetylcholine modulation in ventral hippocampus of male Wistar rats (microdialysis); format: in vivo, rat; settings: memantine 1 mg/kg s.c. alone or with compound 1 3 mg/kg p.o.; combination compared to memantine alone
Source text: Evaluation of Acetylcholine Modulation in Ventral Hippocampus of Male Wistar Rats Experimental Procedure:
Male Wistar rats (240-300 g body weight) were stereotaxically implanted with a microdialysis guide cannula in ventral hippocampus (AP: −5.2 mm, ML: +5.0 mm, DV: −3.8 mm) under isoflurane anesthesia. Co-ordinates were taken according to atlas for the rat brain (Paxinos and Watson 2004) with reference points taken from bregma and vertical from the skull. The rats were allowed to recover individually for four-five days in a round bottom Plexiglas bowl with free access to feed and water.
After surgical recovery of 4-5 days, male Wistar rats were connected to dual quartz lined two-channel liquid swivel (Instech, UK) on a counter balance lever arm, which allowed unrestricted movements of the animal. […]
Acetylcholine in dialysate was quantified using LC-MS/MS method in the calibration range of 0.099 nmol/L-70.171 nmol/L.
All microdialysis data for acetylcholine was plotted as percent change from mean dialysate basal concentrations with 100% defined as the average of five pre-dose values. […] Area under the curve (AUC) values for percent change in acetylcholine levels were calculated and the statistical significance between the mean AUC value were compared against memantine treatment using one-way ANOVA followed by Dunnett's test. […]

SMILES	Ki [1]	discriminative index (Male Wistar rats [2])	change in hippocampal theta power (Male Wistar rats [3])	change in hippocampal acetylcholine levels (Male Wistar rats [4])
COc1ccc2c(c1)c(CN1CCN(C)CC1)cn2S(=O)(=O)c1ccccc1Br [Compound 1, 1-[(2-Bromophenyl)sulfonyl]-5-methoxy-3-[(4-methyl-1-piperazinyl)methyl]-1H-indole dimesylate monohydrate]	2.51 ± 0.377 µM			
COc1ccc2c(c1)c(CN1CCN(C)CC1)cn2S(=O)(=O)c1ccc(F)cc1 [Compound 2, 1-[(4-Fluorophenyl)sulfonyl]-5-methoxy-3-[(4-methyl-1-piperazinyl)methyl]-1H-indole dihydrochloride]	> 10 µM			
CC12CC3CC(C)(C1)CC(N)(C3)C2 [memantine]		No significant increase	no change	moderate change
COc1ccc2c(c1)c(CN1CCN(C)CC1)cn2S(=O)(=O)c1ccc(C(C)C)cc1 [Compound 3, 1-[(4-Isopropylphenyl)sulfonyl]-5-methoxy-3-[(4-methyl-1-piperazinyl)methyl]-1H-indole dihydrochloride]	0.926 ± 0.317 µM			
